As a reminder, the viability is a per cent measure of how many cells are alive, often set against a control.

Series [1] can be described thus: in vitro. The class given is cell-based, human. The conditions noted are these: human. As to the method:
(§1) Human neuroblastoma SH-SY5Y and human liver hepatocellular HepG2 cell lines were purchased from the American Type Culture Collections (ATCC). SH-SY5Y cells were cultured in a Dulbecco’s Modified Eagle Medium (DMEM) supplemented with Ham F12 medium (ratio 1:1), whereas HepG2 cells in Eagle’s Minimum Essential Medium (EMEM). Additionally, all culture medium was supplemented with 10% foetal bovine serum (FBS), streptomycin (100 µg/mL) and penicillin (100 U/mL). The cells were seeded into flasks containing supplemented medium and maintained in a humidified atmosphere of 5% CO2 and 95% air at 37 °C. The cell viability assay was performed in confluence of the cells in serum free medium (without FBS) was 80–90%.
(§2) […]. SH-SY5Y cells and HepG2 cells were seeded on 96-well plate with a density of 27–29 × 10^3 cells/well and 12–14 × 10^3/well respectively. […]. The DMSO concentration of every well in final dilutions was equal to or less than 0.1%. After incubation with compounds, MTT was added and 2 h later, the absorbance was measured at 492 nm. The result was expressed as the percentage of control cells (cultured in serum-free medium containing 0.1% of DMSO) which was set to 100%. The MTT test was performed in three independent replications. Data analysis was performed by using GraphPad Prism 5.0 Software.
(§3) SH-SY5Y a standard cell line used for determining neurocytotoxic effect of potential drug. Moreover it is well-established in vitro model of neurodegenerative disorders. […].

In series [2] the test system is SH-SY5Y cells. The series is described as follows: in vitro. The series is classed as cell-based, human. To be noted: 100 µM, 24 h incubation, MTT, mean ± SD. As to the method: as §1, §2, §3
Series [3] can be described thus: in vitro. To be noted: human. The series is classed as cell-based, human. As to the method: as §1, §2
(§4) . HepG2 is a commonly used in vitro model for the investigation of hepatocytotoxic effect of xenobiotics [40]^,[41]. In our study, we evaluated the toxicity of our new analogs against […]. […]
The source holds these as a separate data set.

Series [4] concerns the target T1, Acetylcholinesterase (eeAChE, E.C. 3.1.1.7) (Electrophorus electricus, UniProt O42275).
T1 construct: purchased Sigma Aldrich
The series is described as follows: biochemical. The series is classed as biochemical, electric eel. The conditions noted are these: for IC50: eeAChE; for Selectivity IC50(eeAChE)/ IC50(BChE): ratio of IC50 values. As to the method: (§5) [33] Inhibitory activity was tested at room temperature on 96-well plate using Ellman’s method. Lyophilised powders of AChE and BChE were dissolved in phosphate buffer (pH 7.5, 0.1 M) with 1% BSA.
(§6) Each well was filled to a total volume of 330 µL. The content inculded 285 µL of phosphate buffer, 5 µL 2 units/mL of eeAChE/BChE, 10 µL 0.01 M of DTNB, 10 µl of tested compound (for the control wells 10 µL of the phosphate buffer instead of tested compound) and 20 µL (7.5 mM) ATCh/BTCh. The hydrolysis of ATCh/BTCh was initiated by adding it to the well directly before the measurement. The absorbance was recorded at 1 min intervals for 8 min in total. The percent of inhibition was calculated by nonlinear regression analysis of the response–concentration (log) curve as a percentage of the reaction rate of the tested compounds over the control. Data analysis was performed by using GraphPad Prism 5.0 Software to give the IC50 values. The experiment was carried out in triplicate.

The target of series [5] is T2, butyrylcholinesterase (BChE, E.C. 3.1.1.8) (Equus caballus, UniProt P81908).
T2 construct: purchased Sigma Aldrich
T2 sequence (P81908 whole entry): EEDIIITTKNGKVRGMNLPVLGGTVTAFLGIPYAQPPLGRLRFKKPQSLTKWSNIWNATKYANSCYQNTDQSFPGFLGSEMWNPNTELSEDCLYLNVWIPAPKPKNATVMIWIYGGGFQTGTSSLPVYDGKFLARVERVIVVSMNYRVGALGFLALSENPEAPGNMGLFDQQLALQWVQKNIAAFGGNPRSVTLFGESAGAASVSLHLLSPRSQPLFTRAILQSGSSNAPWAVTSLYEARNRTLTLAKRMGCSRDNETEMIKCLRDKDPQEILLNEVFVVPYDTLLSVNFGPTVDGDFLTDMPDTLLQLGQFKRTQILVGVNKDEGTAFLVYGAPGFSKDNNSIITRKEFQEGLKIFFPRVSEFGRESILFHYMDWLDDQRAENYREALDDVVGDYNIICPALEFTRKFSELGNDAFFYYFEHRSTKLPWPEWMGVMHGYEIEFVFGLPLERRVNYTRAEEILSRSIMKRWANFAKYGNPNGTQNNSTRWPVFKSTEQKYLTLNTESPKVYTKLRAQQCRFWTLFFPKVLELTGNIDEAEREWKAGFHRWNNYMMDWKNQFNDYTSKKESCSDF
In words: biochemical. Also noted: species or system equine serum. The conditions noted are these: BChE from equine serum. As to the method: as §5, §6

Series [6] concerns HepG2 cells. The series is described as follows: in vitro. The class given is cell-based, human. To be noted: HepG2 cells. As to the method: as §1, §2, §4
For series [7] the following is noted: cited from earlier work.
Where [8] appears, read: 12.5 µM, 24 h incubation, MTT, mean ± SD, read-out: Cells viability of SH-SY5Y cell line (% of control).
The mark [9] stands for this setting: 50 µM, 24 h incubation, MTT, mean ± SD, read-out: Cells viability of SH-SY5Y cell line (% of control).
[10] abbreviates: 100 µM, 24 h incubation, MTT, mean ± SD, read-out: Cells viability of SH-SY5Y cell line (% of control).
Setting [11] is: MTT, 24 h incubation, read-out: Cytotoxicity on HepG2 cells IC50.
Setting [12] is: Ellman's method, phosphate buffer pH 7.5, room temperature, read-out: IC50 AChE.
Where [13] appears, read: value in brackets under the IC50, read-out: pIC50 ± S.E.M. AChE (converted).
The mark [14] stands for this setting: Ellman's method, phosphate buffer pH 7.5, room temperature, read-out: IC50 BChE.
Setting [15] is: value in brackets under the IC50, read-out: pIC50 ± S.E.M. BChE (converted).
Setting [16] is: Cells viability of SH-SY5Y cell line (% of control).

Read-outs that look alike come from different tables or passages of the source.

T1 sequence (O42275 24-633): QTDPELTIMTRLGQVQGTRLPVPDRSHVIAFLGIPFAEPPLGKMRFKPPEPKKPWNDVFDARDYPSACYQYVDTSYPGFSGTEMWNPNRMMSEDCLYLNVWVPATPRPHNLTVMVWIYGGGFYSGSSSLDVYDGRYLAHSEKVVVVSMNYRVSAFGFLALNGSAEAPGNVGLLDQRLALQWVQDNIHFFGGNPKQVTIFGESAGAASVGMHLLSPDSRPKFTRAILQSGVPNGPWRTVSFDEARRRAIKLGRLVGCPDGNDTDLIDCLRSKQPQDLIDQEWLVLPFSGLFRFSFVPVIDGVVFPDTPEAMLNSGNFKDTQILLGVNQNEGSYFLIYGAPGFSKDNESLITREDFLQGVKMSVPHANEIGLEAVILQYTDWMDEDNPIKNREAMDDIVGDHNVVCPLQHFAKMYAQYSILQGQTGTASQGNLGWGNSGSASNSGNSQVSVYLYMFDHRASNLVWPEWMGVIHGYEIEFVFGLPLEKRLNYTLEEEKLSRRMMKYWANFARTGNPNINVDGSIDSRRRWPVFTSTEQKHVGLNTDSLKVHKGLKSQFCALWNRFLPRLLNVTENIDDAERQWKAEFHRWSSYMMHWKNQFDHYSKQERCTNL

As to `CCOP(=O)(OCC)OCCCNc1c2c(nc3ccccc13)CCCC2` [Compound 16, Diethyl(3-((1,2,3,4-tetrahydroacridin-9-yl)amino)propyl)phosphate], in series [1] (setting [8]), the viability at 12.5 µM was 88.1 ± 7.8%. Moreover, in series [1] (setting [9]), the viability at 50 µM came out at 80 ± 7.7%. In addition, the viability at 100 µM in series [1] (setting [10]) came to 83.5%. Besides, in series [2], the “Cells viability of SH-SY5Y cell line (% of control)” value was 83.47 ± 8.6 % of control. The IC50 in series [3] (setting [11]) is 114 µM; in series [4] (setting [12]) it was 246 nM; in series [4] (setting [13]), 245 nM; in series [5] (setting [14]), 17.1 nM; in series [5] (setting [15]), 17.1 nM. In addition, the “Selectivity IC50(eeAChE)/ IC50(BChE)” value in series [4] amounted to 14.36.
Consider `CCOP(=O)(OCC)OCCNCCNc1c2c(nc3ccccc13)CCCC2` [Compound 19, Diethyl(2-((2-((1,2,3,4-tetrahydroacridin-9-yl)amino)ethyl)amino)ethyl)phosphate], for which, in series [1] (setting [8]), the viability at 12.5 µM worked out at 85.5 ± 12.6%. Further, in series [1] (setting [9]), the viability at 50 µM is 82.6 ± 3.2%. In addition, in series [1] (setting [10]), the viability at 100 µM was 81.1%. In addition, in series [2], the “Cells viability of SH-SY5Y cell line (% of control)” value is 81.12 ± 5.0 % of control. The IC50 is over 600 µM in series [3] (setting [11]); 677 nM in series [4] (setting [12]); 676 nM in series [4] (setting [13]); 111 nM in series [5] (setting [14]); 112 nM in series [5] (setting [15]). Besides, the “hepatocytotoxicity in MTT assay (in words)” value in series [6] is given as “lack of hepatocytotoxicity”. In series [4], the “Selectivity IC50(eeAChE)/ IC50(BChE)” value turned out to be 6.08.
In series [1] (setting [16]), `Nc1c2c(nc3ccccc13)CCCC2` [Tacrine, 9-amino-1,2,3,4-tetrahydroacridine, reference compound] registered a viability at 12.5 µM of 98.7 ± 4.5%, a viability at 50 µM of 97.2 ± 2.1% and a viability at 100 µM of 68.9 ± 2.9%. This compound yielded an IC50 in series [3] of 190 µM. Further, the “bioavailability of the oral formulation” value in series [7] is recorded as 9.9–36.4%.

Source of the values: paper PMC8979514 (Journal of Enzyme Inhibition and Medicinal Chemistry, 2022).
